The source made the active and inactive calls. The calls are words filed in the database; no cut-off is given here.
tested on: A2780; assay: In vitro cytotoxicity against human ovarian carcinoma cell line A2780 using sulforhodamine B (SRB) assay; format: functional, cell-based

| Structure (SMILES) | IC50 [µM] |
| --- | --- |
| CCC1CCCCN1CCC(=O)Nc1ccc2cc3ccc(NC(=O)CCN4CCCCC4CC)cc3nc2c1 (stereo unspecified) | 2.2 |
| O=C(CCN1CCCCC1CO)Nc1ccc2cc3ccc(NC(=O)CCN4CCCCC4CO)cc3nc2c1 (stereo unspecified) | 2.3 |
| CC1(C)CC2CC(C)(CN2CCC(=O)Nc2ccc3cc4ccc(NC(=O)CCN5CC6(C)CC5CC(C)(C)C6)cc4nc3c2)C1 | 0.5 |
| CC1CCCN(CCC(=O)Nc2ccc3cc4ccc(NC(=O)CCN5CCCC(C)C5)cc4nc3c2)C1 (stereo unspecified) | 2.1 |
| CC1CCN(CCC(=O)Nc2ccc3cc4ccc(NC(=O)CCN5CCC(C)CC5)cc4nc3c2)CC1 | 2.15 |
| O=C(CCN1CCC(Cc2ccccc2)CC1)Nc1ccc2cc3ccc(NC(=O)CCN4CCC(Cc5ccccc5)CC4)cc3nc2c1 | 0.31 |
| O=C(CCN1CCCCC1)Nc1ccc2cc3ccc(NC(=O)CCN4CCCCC4)cc3nc2c1 | 1.7 |
| O=C(CCN1CCCCC1CCO)Nc1ccc2cc3ccc(NC(=O)CCN4CCCCC4CCO)cc3nc2c1 (stereo unspecified) | 3.2 |

tested on: CH1; assay: In vitro cytotoxicity against human ovarian carcinoma cell line CH1 using sulforhodamine B (SRB) assay; format: functional, cell-based

| Structure (SMILES) | IC50 [µM] |
| --- | --- |
| CCC1CCCCN1CCC(=O)Nc1ccc2cc3ccc(NC(=O)CCN4CCCCC4CC)cc3nc2c1 (stereo unspecified) | 2.2 |
| O=C(CCN1CCCCC1CO)Nc1ccc2cc3ccc(NC(=O)CCN4CCCCC4CO)cc3nc2c1 (stereo unspecified) | 10.5 |
| CC1(C)CC2CC(C)(CN2CCC(=O)Nc2ccc3cc4ccc(NC(=O)CCN5CC6(C)CC5CC(C)(C)C6)cc4nc3c2)C1 | 0.54 |
| CC1CCCN(CCC(=O)Nc2ccc3cc4ccc(NC(=O)CCN5CCCC(C)C5)cc4nc3c2)C1 (stereo unspecified) | 2.2 |
| CC1CCN(CCC(=O)Nc2ccc3cc4ccc(NC(=O)CCN5CCC(C)CC5)cc4nc3c2)CC1 | 2.05 |
| O=C(CCN1CCC(Cc2ccccc2)CC1)Nc1ccc2cc3ccc(NC(=O)CCN4CCC(Cc5ccccc5)CC4)cc3nc2c1 | 0.11 |
| O=C(CCN1CCCCC1)Nc1ccc2cc3ccc(NC(=O)CCN4CCCCC4)cc3nc2c1 | 2.25 |
| O=C(CCN1CCCCC1CCO)Nc1ccc2cc3ccc(NC(=O)CCN4CCCCC4CCO)cc3nc2c1 (stereo unspecified) | 11 |

molecular target: DNA polymerase I, thermostable (Thermus aquaticus) (UniProt P19821); assay: Ability to inhibit Taq polymerase in vitro at a concentration of 10 uM; NI means No inhibition
Sequence (P19821 whole entry): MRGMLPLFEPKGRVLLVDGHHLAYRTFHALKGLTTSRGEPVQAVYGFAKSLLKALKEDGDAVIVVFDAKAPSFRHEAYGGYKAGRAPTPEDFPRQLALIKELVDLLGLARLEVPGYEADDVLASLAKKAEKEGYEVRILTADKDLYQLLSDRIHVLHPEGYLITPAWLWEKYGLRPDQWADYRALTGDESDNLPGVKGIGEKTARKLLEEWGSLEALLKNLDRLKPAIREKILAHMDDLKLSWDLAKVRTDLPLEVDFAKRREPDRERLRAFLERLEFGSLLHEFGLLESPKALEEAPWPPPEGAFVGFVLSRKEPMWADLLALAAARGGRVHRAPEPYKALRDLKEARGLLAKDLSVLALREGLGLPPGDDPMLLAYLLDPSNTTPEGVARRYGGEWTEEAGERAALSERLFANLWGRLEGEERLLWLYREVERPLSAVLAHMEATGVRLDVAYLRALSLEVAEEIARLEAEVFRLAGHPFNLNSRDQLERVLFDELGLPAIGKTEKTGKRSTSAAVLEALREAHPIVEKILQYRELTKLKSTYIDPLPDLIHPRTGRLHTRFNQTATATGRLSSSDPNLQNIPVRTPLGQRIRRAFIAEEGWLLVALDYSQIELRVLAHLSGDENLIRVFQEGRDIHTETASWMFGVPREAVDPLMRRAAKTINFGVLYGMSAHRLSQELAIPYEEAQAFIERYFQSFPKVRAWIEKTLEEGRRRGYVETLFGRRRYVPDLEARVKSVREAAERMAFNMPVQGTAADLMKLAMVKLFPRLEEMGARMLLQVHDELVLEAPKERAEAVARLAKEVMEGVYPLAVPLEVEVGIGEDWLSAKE

| Structure (SMILES) | inhibition |
| --- | --- |
| CC1(C)CC2CC(C)(CN2CCC(=O)Nc2ccc3cc4ccc(NC(=O)CCN5CC6(C)CC5CC(C)(C)C6)cc4nc3c2)C1 | inactive |
| CC1CCCN(CCC(=O)Nc2ccc3cc4ccc(NC(=O)CCN5CCCC(C)C5)cc4nc3c2)C1 (stereo unspecified) | inactive |
| CC1CCN(CCC(=O)Nc2ccc3cc4ccc(NC(=O)CCN5CCC(C)CC5)cc4nc3c2)CC1 | inactive |
| O=C(CCN1CCC(Cc2ccccc2)CC1)Nc1ccc2cc3ccc(NC(=O)CCN4CCC(Cc5ccccc5)CC4)cc3nc2c1 | inactive |

More lines, now with the values ahead:

| inhibition | Structure (SMILES) |
| --- | --- |
| inactive | CCC1CCCCN1CCC(=O)Nc1ccc2cc3ccc(NC(=O)CCN4CCCCC4CC)cc3nc2c1 (stereo unspecified) |
| inactive | O=C(CCN1CCCCC1CO)Nc1ccc2cc3ccc(NC(=O)CCN4CCCCC4CO)cc3nc2c1 (stereo unspecified) |
| inactive | O=C(CCN1CCCCC1)Nc1ccc2cc3ccc(NC(=O)CCN4CCCCC4)cc3nc2c1 |
| inactive | O=C(CCN1CCCCC1CCO)Nc1ccc2cc3ccc(NC(=O)CCN4CCCCC4CCO)cc3nc2c1 (stereo unspecified) |

molecular target: DNA polymerase I, thermostable (Thermus aquaticus) (UniProt P19821); assay: Ability to inhibit Taq polymerase in vitro at a concentration of 20 uM; NI means No inhibition

| Structure (SMILES) | inhibition |
| --- | --- |
| CC1(C)CC2CC(C)(CN2CCC(=O)Nc2ccc3cc4ccc(NC(=O)CCN5CC6(C)CC5CC(C)(C)C6)cc4nc3c2)C1 | inactive |
| CC1CCCN(CCC(=O)Nc2ccc3cc4ccc(NC(=O)CCN5CCCC(C)C5)cc4nc3c2)C1 (stereo unspecified) | inactive |
| CC1CCN(CCC(=O)Nc2ccc3cc4ccc(NC(=O)CCN5CCC(C)CC5)cc4nc3c2)CC1 | inactive |
| O=C(CCN1CCC(Cc2ccccc2)CC1)Nc1ccc2cc3ccc(NC(=O)CCN4CCC(Cc5ccccc5)CC4)cc3nc2c1 | inactive |

Further lines, results first:

| inhibition | Structure (SMILES) |
| --- | --- |
| inactive | CCC1CCCCN1CCC(=O)Nc1ccc2cc3ccc(NC(=O)CCN4CCCCC4CC)cc3nc2c1 (stereo unspecified) |
| inactive | O=C(CCN1CCCCC1CO)Nc1ccc2cc3ccc(NC(=O)CCN4CCCCC4CO)cc3nc2c1 (stereo unspecified) |
| inactive | O=C(CCN1CCCCC1)Nc1ccc2cc3ccc(NC(=O)CCN4CCCCC4)cc3nc2c1 |
| inactive | O=C(CCN1CCCCC1CCO)Nc1ccc2cc3ccc(NC(=O)CCN4CCCCC4CCO)cc3nc2c1 (stereo unspecified) |

molecular target: DNA polymerase I, thermostable (Thermus aquaticus) (UniProt P19821); assay: Ability to inhibit Taq polymerase in vitro at a concentration of 50 uM; NI means No inhibition

| Structure (SMILES) | inhibition |
| --- | --- |
| CC1(C)CC2CC(C)(CN2CCC(=O)Nc2ccc3cc4ccc(NC(=O)CCN5CC6(C)CC5CC(C)(C)C6)cc4nc3c2)C1 | inactive |
| CC1CCCN(CCC(=O)Nc2ccc3cc4ccc(NC(=O)CCN5CCCC(C)C5)cc4nc3c2)C1 (stereo unspecified) | inactive |
| CC1CCN(CCC(=O)Nc2ccc3cc4ccc(NC(=O)CCN5CCC(C)CC5)cc4nc3c2)CC1 | inactive |
| O=C(CCN1CCC(Cc2ccccc2)CC1)Nc1ccc2cc3ccc(NC(=O)CCN4CCC(Cc5ccccc5)CC4)cc3nc2c1 | inactive |

Next, values leading:

| inhibition | Structure (SMILES) |
| --- | --- |
| inactive | CCC1CCCCN1CCC(=O)Nc1ccc2cc3ccc(NC(=O)CCN4CCCCC4CC)cc3nc2c1 (stereo unspecified) |
| inactive | O=C(CCN1CCCCC1CO)Nc1ccc2cc3ccc(NC(=O)CCN4CCCCC4CO)cc3nc2c1 (stereo unspecified) |
| inactive | O=C(CCN1CCCCC1)Nc1ccc2cc3ccc(NC(=O)CCN4CCCCC4)cc3nc2c1 |
| inactive | O=C(CCN1CCCCC1CCO)Nc1ccc2cc3ccc(NC(=O)CCN4CCCCC4CCO)cc3nc2c1 (stereo unspecified) |

molecular target: Telomerase reverse transcriptase (Homo sapiens, UniProt O14746); assay: Ability to inhibit human telomerase in a modified cell-free TRAP assay using extracts from A2780 cell line
Sequence (O14746 whole entry): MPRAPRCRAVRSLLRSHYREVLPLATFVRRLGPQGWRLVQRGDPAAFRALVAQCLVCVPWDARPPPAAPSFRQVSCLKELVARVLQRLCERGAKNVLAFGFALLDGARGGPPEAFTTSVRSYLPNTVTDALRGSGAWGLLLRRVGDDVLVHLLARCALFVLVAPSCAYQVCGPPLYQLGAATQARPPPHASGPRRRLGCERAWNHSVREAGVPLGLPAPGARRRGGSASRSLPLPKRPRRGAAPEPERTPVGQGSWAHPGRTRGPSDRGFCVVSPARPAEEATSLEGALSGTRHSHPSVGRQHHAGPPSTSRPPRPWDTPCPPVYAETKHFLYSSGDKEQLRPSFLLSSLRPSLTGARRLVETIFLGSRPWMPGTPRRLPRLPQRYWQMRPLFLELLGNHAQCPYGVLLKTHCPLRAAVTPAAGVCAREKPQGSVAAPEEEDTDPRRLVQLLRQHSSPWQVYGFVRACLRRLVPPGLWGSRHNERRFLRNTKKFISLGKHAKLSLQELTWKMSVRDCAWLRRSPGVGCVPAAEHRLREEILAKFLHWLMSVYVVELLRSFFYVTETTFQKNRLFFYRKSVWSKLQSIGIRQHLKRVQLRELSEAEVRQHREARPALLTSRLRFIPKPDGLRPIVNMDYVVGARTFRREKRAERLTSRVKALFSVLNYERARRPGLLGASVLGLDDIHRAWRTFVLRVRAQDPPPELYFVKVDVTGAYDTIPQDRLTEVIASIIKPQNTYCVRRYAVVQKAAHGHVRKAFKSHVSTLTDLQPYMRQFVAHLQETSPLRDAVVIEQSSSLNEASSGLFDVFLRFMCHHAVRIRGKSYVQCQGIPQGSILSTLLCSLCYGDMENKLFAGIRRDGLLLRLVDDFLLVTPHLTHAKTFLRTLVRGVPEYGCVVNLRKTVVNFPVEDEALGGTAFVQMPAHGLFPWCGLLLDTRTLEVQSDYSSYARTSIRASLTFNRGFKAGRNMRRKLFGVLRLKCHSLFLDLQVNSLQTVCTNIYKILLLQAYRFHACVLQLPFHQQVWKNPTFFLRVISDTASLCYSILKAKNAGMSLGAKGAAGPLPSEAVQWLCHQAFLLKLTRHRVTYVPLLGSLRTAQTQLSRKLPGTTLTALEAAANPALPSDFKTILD

| Structure (SMILES) | IC50 [µM] |
| --- | --- |
| CC1(C)CC2CC(C)(CN2CCC(=O)Nc2ccc3cc4ccc(NC(=O)CCN5CC6(C)CC5CC(C)(C)C6)cc4nc3c2)C1 | > 50 |
| CC1CCCN(CCC(=O)Nc2ccc3cc4ccc(NC(=O)CCN5CCCC(C)C5)cc4nc3c2)C1 (stereo unspecified) | 4.4 |
| CC1CCN(CCC(=O)Nc2ccc3cc4ccc(NC(=O)CCN5CCC(C)CC5)cc4nc3c2)CC1 | 1.35 |
| O=C(CCN1CCC(Cc2ccccc2)CC1)Nc1ccc2cc3ccc(NC(=O)CCN4CCC(Cc5ccccc5)CC4)cc3nc2c1 | > 50 |

Continued, values first:

| IC50 [µM] | Structure (SMILES) |
| --- | --- |
| 2.7 | CCC1CCCCN1CCC(=O)Nc1ccc2cc3ccc(NC(=O)CCN4CCCCC4CC)cc3nc2c1 (stereo unspecified) |
| 5.4 | O=C(CCN1CCCCC1CO)Nc1ccc2cc3ccc(NC(=O)CCN4CCCCC4CO)cc3nc2c1 (stereo unspecified) |
| 2.8 | O=C(CCN1CCCCC1)Nc1ccc2cc3ccc(NC(=O)CCN4CCCCC4)cc3nc2c1 |
| 4.1 | O=C(CCN1CCCCC1CCO)Nc1ccc2cc3ccc(NC(=O)CCN4CCCCC4CCO)cc3nc2c1 (stereo unspecified) |

tested on: SK-OV-3; assay: In vitro cytotoxicity against human ovarian carcinoma cell line SKOV-3 using sulforhodamine B (SRB) assay; format: functional, cell-based

| Structure (SMILES) | IC50 [µM] |
| --- | --- |
| CCC1CCCCN1CCC(=O)Nc1ccc2cc3ccc(NC(=O)CCN4CCCCC4CC)cc3nc2c1 (stereo unspecified) | 3.9 |
| O=C(CCN1CCCCC1CO)Nc1ccc2cc3ccc(NC(=O)CCN4CCCCC4CO)cc3nc2c1 (stereo unspecified) | 7 |
| CC1(C)CC2CC(C)(CN2CCC(=O)Nc2ccc3cc4ccc(NC(=O)CCN5CC6(C)CC5CC(C)(C)C6)cc4nc3c2)C1 | 2.2 |
| CC1CCCN(CCC(=O)Nc2ccc3cc4ccc(NC(=O)CCN5CCCC(C)C5)cc4nc3c2)C1 (stereo unspecified) | 2.85 |
| CC1CCN(CCC(=O)Nc2ccc3cc4ccc(NC(=O)CCN5CCC(C)CC5)cc4nc3c2)CC1 | 2.4 |
| O=C(CCN1CCC(Cc2ccccc2)CC1)Nc1ccc2cc3ccc(NC(=O)CCN4CCC(Cc5ccccc5)CC4)cc3nc2c1 | 0.88 |
| O=C(CCN1CCCCC1)Nc1ccc2cc3ccc(NC(=O)CCN4CCCCC4)cc3nc2c1 | 0.54 |
| O=C(CCN1CCCCC1CCO)Nc1ccc2cc3ccc(NC(=O)CCN4CCCCC4CCO)cc3nc2c1 (stereo unspecified) | 10.5 |

Source: ChEMBL document CHEMBL1132094, “Human telomerase inhibition by substituted acridine derivatives” (Bioorg Med Chem Lett, 1999)
